Measured values as given in patent US10227323B2, “Glucosylceramide synthase inhibitors for the treatment of diseases” (BIOMARIN PHARMACEUTICAL INC., priority 2013, dated 2019).

Target: T1, GCS (Canis lupus familiaris, UniProt A0A8I3MXG6)
T1 sequence (A0A8I3MXG6 1-394): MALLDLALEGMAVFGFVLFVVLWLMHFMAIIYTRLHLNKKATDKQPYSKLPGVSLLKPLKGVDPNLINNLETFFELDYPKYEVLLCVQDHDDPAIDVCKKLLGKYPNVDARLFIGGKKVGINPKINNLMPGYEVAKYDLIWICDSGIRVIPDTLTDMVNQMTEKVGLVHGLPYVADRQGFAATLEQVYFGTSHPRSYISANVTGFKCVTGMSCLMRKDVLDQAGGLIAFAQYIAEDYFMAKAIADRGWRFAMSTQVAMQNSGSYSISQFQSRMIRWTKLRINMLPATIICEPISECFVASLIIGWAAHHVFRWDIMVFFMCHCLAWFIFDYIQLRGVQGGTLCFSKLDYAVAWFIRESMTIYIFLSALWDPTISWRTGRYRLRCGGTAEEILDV
Experiment: Assay 1: GCS Enzymatic Assay (MDCK cell lysate, C6-NBD-Ceramide, LC/MS)
Format: biochemical, canine
Conditions: Table 2; data marked by *
Outline: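 LC/MS/MS measurement of glucosylceramide and NBD-ceramide after a 1 h, 37 °C reaction with 100 μM UDP-glucose and 10 μM C6-NBD-ceramide gave IC50s or percent inhibition.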

Row | SMILES | % inhibition generated from Assay 1
1 | CC(C)(O)COc1ccc([C@H](O)[C@@H](CN2CCCC2)NC(=O)C(F)(F)c2cc3cc(Cl)ccc3o2)cc1Cl [Compound 168, N-((1S,2R)-1-(3-chloro-4-(2-hydroxy-2-methylpropoxy)phenyl)-1-hydroxy-3-(pyrrolidin-1-yl)propan-2-yl)-2-(5-chlorobenzofuran-2-yl)-2,2-difluoroacetamide] | B* (the compound had a % inhibition of greater than or equal to about 3% but less than about 50%)
2 | O=C(N[C@H](CN1CCC1)[C@H](O)c1ccc(OC2CC2)c(Cl)c1)/C(=N/O)c1cc2cc(Cl)ccc2o1 [Compound 169, (E)-N-((1R,2R)-3-(azetidin-1-yl)-1-(3-chloro-4-cyclopropoxyphenyl)-1-hydroxypropan-2-yl)-2-(5-chlorobenzofuran-2-yl)-2-(hydroxyimino)acetamide] | A* (the compound had a % inhibition of a percent inhibition of greater than or equal to about 50%)
3 | O=C(CCc1ccc2ccccc2c1)C(=O)N[C@H](CN1CCC1)[C@H](O)c1ccc(OC2CC2)c(Cl)c1 [Compound 170, N-((1R,2R)-3-(azetidin-1-yl)-1-(3-chloro-4-cyclopropoxyphenyl)-1-hydroxypropan-2-yl)-4-(naphthalen-2-yl)-2-oxobutanamide] | B* (the compound had a % inhibition of greater than or equal to about 3% but less than about 50%)
4 | O=C(N[C@H](CN1CCCC1)[C@H](O)c1ccc(OC2CC2)c(Cl)c1)C(F)(F)c1ccc(-c2ccc(F)cn2)cc1 [Compound 178, N-((1R,2R)-1-(3-chloro-4-cyclopropoxyphenyl)-1-hydroxy-3-(pyrrolidin-1-yl)propan-2-yl)-2,2-difluoro-2-(4-(5-fluoropyridin-2-yl)phenyl)acetamide] | A* (the compound had a % inhibition of a percent inhibition of greater than or equal to about 50%)
5 | O=C(N[C@H](CN1CCCC1)[C@H](O)c1ccc2c(c1)OCCO2)C(F)(F)c1ccc(-c2ccc(F)cn2)cc1 [Compound 179, N-((1R,2R)-1-(2,3-dihydrobenzo[b][1,4]dioxin-6-yl)-1-hydroxy-3-(pyrrolidin-1-yl)propan-2-yl)-2,2-difluoro-2-(4-(5-fluoropyridin-2-yl)phenyl)acetamide] | A* (the compound had a % inhibition of a percent inhibition of greater than or equal to about 50%)
6 | O=C(N[C@H](CN1CCCC1)[C@H](O)c1ccc2c(c1)OCCO2)C(F)(F)c1ccc(-c2ccc(F)cc2)s1 [Compound 180, N-((1R,2R)-1-(2,3-dihydrobenzo[b][1,4]dioxin-6-yl)-1-hydroxy-3-(pyrrolidin-1-yl)propan-2-yl)-2,2-difluoro-2-(5-(4-fluorophenyl)thiophen-2-yl)acetamide] | A* (the compound had a % inhibition of a percent inhibition of greater than or equal to about 50%)

Same assay, conditions: Table 2; data without asterisk; read-out: IC50 (nM) generated from Assay 1

Row | SMILES | IC50 [nM]
7 | O=C(N[C@H](CN1CCCC1)[C@H](O)c1cc(F)c2c(c1)OCCO2)C(F)(F)CCc1ccc2c(c1)CCCC2 [Compound 167, 2,2-difluoro-N-((1R,2R)-1-(8-fluoro-2,3-dihydrobenzo[b][1,4]dioxin-6-yl)-1-hydroxy-3-(pyrrolidin-1-yl)propan-2-yl)-4-(5,6,7,8-tetrahydronaphthalen-2-yl)butanamide] | < 50
8 | O=C(N[C@H](CN1CCC1)[C@H](O)c1ccc(OC2CC2)c(Cl)c1)C(F)(F)CCc1ccc2ccccc2c1 [Compound 171, N-((1R,2R)-3-(azetidin-1-yl)-1-(3-chloro-4-cyclopropoxyphenyl)-1-hydroxypropan-2-yl)-2,2-difluoro-4-(naphthalen-2-yl)butanamide] | < 50
9 | O=C(N[C@H](CN1CCCC1)[C@H](O)c1ccc(OC2CC2)c(Cl)c1)C(=O)c1ccc2cc(Cl)ccc2c1 [Compound 172, N-((1R,2R)-1-(3-chloro-4-cyclopropoxyphenyl)-1-hydroxy-3-(pyrrolidin-1-yl)propan-2-yl)-2-(6-chloronaphthalen-2-yl)-2-oxoacetamide] | < 50
10 | O=C(N[C@H](CN1CCCC1)[C@H](O)c1ccc(OC2CC2)c(Cl)c1)/C(=N/O)c1ccc2cc(Cl)ccc2c1 [Compound 173, (E)-N-((1R,2R)-1-(3-chloro-4-cyclopropoxyphenyl)-1-hydroxy-3-(pyrrolidin-1-yl)propan-2-yl)-2-(6-chloronaphthalen-2-yl)-2-(hydroxyimino)acetamide] | < 50
11 | O=C(N[C@H](CN1CCCC1)[C@H](O)c1ccc2c(c1)OCCO2)C(=O)c1ccc(-c2ccc(F)cc2)s1 [Compound 174, N-((1R,2R)-1-(2,3-dihydrobenzo[b][1,4]dioxin-6-yl)-1-hydroxy-3-(pyrrolidin-1-yl)propan-2-yl)-2-(5-(4-fluorophenyl)thiophen-2-yl)-2-oxoacetamide] | < 50
12 | O=C(N[C@H](CN1CCCC1)[C@H](O)c1ccc(OC2CC2)c(Cl)c1)C(=O)c1ccc(-c2ccc(F)cn2)cc1 [Compound 175] | < 50
13 | O=C(N[C@H](CN1CCCC1)[C@H](O)c1cc(F)c2c(c1)OCCO2)C(=O)c1ccc(-c2ccc(F)cn2)cc1 [Compound 176, N-((1R,2R)-1-(8-fluoro-2,3-dihydrobenzo[b][1,4]dioxin-6-yl)-1-hydroxy-3-(pyrrolidin-1-yl)propan-2-yl)-2-(4-(5-fluoropyridin-2-yl)phenyl)-2-oxoacetamide] | < 50
14 | O=C(N[C@H](CN1CCCC1)[C@H](O)c1ccc(OC2CCOCC2)c(Cl)c1)/C(=N/O)c1ccc(-c2ccc(F)cc2)cc1 [Compound 177, (E)-N-((1R,2R)-1-(3-chloro-4-((tetrahydro-2H-pyran-4-yl)oxy)phenyl)-1-hydroxy-3-(pyrrolidin-1-yl)propan-2-yl)-2-(4′-fluoro-[1,1′-biphenyl]-4-yl)-2-(hydroxyimino)acetamide] | < 50
15 | O=C(N[C@H](CN1CCCC1)[C@H](O)c1ccc2c(c1)OCCO2)/C(=N/O)c1ccc(-c2ccc(F)cc2)s1 [Compound 181, (Z)-N-((1R,2R)-1-(2,3-dihydrobenzo[b][1,4]dioxin-6-yl)-1-hydroxy-3-(pyrrolidin-1-yl)propan-2-yl)-2-(5-(4-fluorophenyl)thiophen-2-yl)-2-(hydroxyimino)acetamide] | < 50
16 | O=C(N[C@H](CN1CCCC1)[C@H](O)c1ccc(OC2CC2)c(Cl)c1)C(F)(F)c1ccc(-c2ccccn2)cc1 [Compound 182, N-((1R,2R)-1-(3-chloro-4-cyclopropoxyphenyl)-1-hydroxy-3-(pyrrolidin-1-yl)propan-2-yl)-2,2-difluoro-2-(4-(pyridin-2-yl)phenyl)acetamide] | < 50
17 | O=C(N[C@H](CN1CCCC1)[C@H](O)c1cc(F)c2c(c1)OCCO2)C(F)(F)c1ccc(-c2ccc(F)cn2)cc1 [Compound 183, 2,2-difluoro-N-((1R,2R)-1-(8-fluoro-2,3-dihydrobenzo[b][1,4]dioxin-6-yl)-1-hydroxy-3-(pyrrolidin-1-yl)propan-2-yl)-2-(4-(5-fluoropyridin-2-yl)phenyl)acetamide] | < 50
18 | O=C(N[C@H](CN1CCCC1)[C@H](O)c1ccc(OC2CC2)c(Cl)c1)/C(=N/O)c1ccc(-c2ccc(F)cn2)cc1 [Compound 184, (E)-N-((1R,2R)-1-(3-chloro-4-cyclopropoxyphenyl)-1-hydroxy-3-(pyrrolidin-1-yl)propan-2-yl)-2-(4-(5-fluoropyridin-2-yl)phenyl)-2-(hydroxyimino)acetamide] | < 50
